Columns and labels:
[1] = molecular target: serotoninergic 5-HT6 receptor (Homo sapiens, UniProt P50406); experiment: Binding assay 5-HT6 (h), [3H]LSD, CHO cells; design: expressed in transfected cells; host or cells: CHO cells; conditions: read-out: 5-HT6
In short: (§1)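 Compounds were screened at 1×10^−6 M, and bound radioactivity was measured by scintillation counting. Specific binding equals total binding minus nonspecific binding obtained with an excess of unlabelled ligand.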

[2] = molecular target: serotoninergic 5-HT7 receptor (Homo sapiens, UniProt P34969); experiment: Binding assay 5-HT7 (h), [3H]LSD, CHO cells; design: expressed in transfected cells; host or cells: CHO cells; conditions: read-out: 5-HT7
Chain of serotoninergic 5-HT7 receptor (P34969 whole entry): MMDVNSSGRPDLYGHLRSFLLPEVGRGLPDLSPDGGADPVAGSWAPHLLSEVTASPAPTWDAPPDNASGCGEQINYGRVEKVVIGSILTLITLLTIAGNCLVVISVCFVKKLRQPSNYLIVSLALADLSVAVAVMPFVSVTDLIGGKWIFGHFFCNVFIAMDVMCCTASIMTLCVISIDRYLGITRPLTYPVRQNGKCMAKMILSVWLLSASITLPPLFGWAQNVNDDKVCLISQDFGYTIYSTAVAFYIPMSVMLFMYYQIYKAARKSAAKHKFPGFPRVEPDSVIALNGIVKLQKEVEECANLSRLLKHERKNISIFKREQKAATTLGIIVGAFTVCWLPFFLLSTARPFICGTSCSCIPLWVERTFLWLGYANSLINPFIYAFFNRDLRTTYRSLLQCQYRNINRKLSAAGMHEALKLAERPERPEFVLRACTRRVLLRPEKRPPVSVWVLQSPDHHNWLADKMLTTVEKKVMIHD
In short: as §1

dopaminergic D3 receptor = dopaminergic D3 receptor (Homo sapiens, UniProt P35462); experiment: Binding assay D3 (h), [3H]methyl-spiperone, CHO cells; design: expressed in transfected cells; host or cells: CHO cells; conditions: read-out: D3 [%]
Chain of dopaminergic D3 receptor (P35462 whole entry): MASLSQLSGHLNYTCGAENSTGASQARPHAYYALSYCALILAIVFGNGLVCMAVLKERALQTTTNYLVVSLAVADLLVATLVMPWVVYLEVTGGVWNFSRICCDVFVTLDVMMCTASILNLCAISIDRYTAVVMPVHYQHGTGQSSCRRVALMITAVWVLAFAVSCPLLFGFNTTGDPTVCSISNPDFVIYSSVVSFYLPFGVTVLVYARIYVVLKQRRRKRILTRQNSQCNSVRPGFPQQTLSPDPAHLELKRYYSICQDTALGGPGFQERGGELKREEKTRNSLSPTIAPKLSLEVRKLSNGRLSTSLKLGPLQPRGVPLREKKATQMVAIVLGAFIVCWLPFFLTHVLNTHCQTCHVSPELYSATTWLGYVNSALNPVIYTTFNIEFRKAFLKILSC
In short: as §1

[3] = molecular target: serotoninergic 5-HT2A receptor (Homo sapiens, UniProt P28223); experiment: Binding assay 5-HT2A (h), [3H]ketanserin, HEK-293 cells; design: expressed in transfected cells; host or cells: HEK-293 cells; conditions: read-out: 5-HT2A
Chain of serotoninergic 5-HT2A receptor (P28223 whole entry): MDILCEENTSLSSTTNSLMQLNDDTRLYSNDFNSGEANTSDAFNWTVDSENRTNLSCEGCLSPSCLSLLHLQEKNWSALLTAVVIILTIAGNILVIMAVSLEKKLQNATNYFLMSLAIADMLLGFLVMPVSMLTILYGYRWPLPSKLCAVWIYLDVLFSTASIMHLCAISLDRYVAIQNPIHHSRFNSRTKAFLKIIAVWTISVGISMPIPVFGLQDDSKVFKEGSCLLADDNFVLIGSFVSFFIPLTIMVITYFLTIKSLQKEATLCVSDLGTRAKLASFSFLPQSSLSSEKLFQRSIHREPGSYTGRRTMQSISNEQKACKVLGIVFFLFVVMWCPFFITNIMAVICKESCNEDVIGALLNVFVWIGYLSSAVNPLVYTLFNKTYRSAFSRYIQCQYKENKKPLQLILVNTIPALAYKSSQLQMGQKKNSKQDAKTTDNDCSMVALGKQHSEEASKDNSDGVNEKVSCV
In short: as §1

adrenergic α1 receptor = experiment: Binding assay α1 (non-selective), [3H]prazosin, rat cerebral cortex; conditions: percent inhibition of control specific binding; compounds tested at 1×10^−6 M
In short: as §1

[4] = molecular target: T1, serotoninergic 5-HT1A receptor (Homo sapiens, UniProt P08908); experiment: Binding assay 5-HT1A (h), [3H]8-OH-DPAT, HEK-293 cells; design: expressed in transfected cells; host or cells: HEK-293 cells; conditions: read-out: 5-HT1A
T1 sequence (P08908 1-422): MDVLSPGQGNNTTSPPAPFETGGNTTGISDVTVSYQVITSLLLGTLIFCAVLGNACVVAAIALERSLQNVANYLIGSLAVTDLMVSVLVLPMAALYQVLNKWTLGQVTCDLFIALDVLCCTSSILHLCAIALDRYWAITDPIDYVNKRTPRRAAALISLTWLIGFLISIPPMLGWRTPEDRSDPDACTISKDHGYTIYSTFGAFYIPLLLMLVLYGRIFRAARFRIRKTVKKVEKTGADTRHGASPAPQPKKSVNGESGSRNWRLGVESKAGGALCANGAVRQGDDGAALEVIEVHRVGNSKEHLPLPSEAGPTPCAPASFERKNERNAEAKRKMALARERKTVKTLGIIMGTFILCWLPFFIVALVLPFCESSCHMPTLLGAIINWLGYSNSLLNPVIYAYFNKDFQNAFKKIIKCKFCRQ
In short: as §1

dopaminergic D2 receptor = dopaminergic D2 receptor (Homo sapiens, UniProt P14416); experiment: Binding assay D2S (h), [3H]methyl-spiperone, HEK-293 cells; design: expressed in transfected cells; host or cells: HEK-293 cells; conditions: read-out: D2 [%]
Chain of dopaminergic D2 receptor (P14416 1-414 isoform P14416-2): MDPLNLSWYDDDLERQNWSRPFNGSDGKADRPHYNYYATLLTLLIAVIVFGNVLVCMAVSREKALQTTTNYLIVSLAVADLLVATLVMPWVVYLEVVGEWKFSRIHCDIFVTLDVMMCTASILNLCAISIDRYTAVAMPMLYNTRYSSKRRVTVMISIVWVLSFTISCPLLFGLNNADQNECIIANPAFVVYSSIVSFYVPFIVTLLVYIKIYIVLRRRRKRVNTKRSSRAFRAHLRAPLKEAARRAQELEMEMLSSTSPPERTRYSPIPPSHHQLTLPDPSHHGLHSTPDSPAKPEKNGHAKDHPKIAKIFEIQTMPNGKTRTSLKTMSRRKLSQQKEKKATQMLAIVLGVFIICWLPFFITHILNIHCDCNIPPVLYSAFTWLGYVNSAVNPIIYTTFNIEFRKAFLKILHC
In short: as §1

[5] = molecular target: T2, serotonine transporter (SERT) receptor (Homo sapiens, UniProt P31645); experiment: Binding assay SERT (h), [3H]imipramine, CHO cells; conditions: read-out: SERT [%]
T2 construct: expressed in transfected cells; host or cells: CHO cells
T2 sequence (P31645 whole entry): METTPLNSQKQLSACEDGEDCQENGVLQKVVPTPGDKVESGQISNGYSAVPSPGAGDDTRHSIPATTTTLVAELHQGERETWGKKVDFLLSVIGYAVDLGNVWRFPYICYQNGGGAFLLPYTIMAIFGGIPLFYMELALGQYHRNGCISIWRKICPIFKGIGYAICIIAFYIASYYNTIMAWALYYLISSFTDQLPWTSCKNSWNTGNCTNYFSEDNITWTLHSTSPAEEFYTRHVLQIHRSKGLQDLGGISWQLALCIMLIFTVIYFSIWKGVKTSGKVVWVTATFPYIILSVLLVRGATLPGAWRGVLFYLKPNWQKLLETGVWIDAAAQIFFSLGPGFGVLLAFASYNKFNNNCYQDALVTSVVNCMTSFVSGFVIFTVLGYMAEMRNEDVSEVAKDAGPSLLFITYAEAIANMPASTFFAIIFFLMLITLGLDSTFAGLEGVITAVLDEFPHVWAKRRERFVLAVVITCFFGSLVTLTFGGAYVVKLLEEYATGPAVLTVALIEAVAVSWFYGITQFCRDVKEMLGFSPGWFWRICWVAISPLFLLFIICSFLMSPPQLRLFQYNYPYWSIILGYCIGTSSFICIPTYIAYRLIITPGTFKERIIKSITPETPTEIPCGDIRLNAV
In short: as §1

Chain of serotoninergic 5-HT6 receptor (P50406 whole entry): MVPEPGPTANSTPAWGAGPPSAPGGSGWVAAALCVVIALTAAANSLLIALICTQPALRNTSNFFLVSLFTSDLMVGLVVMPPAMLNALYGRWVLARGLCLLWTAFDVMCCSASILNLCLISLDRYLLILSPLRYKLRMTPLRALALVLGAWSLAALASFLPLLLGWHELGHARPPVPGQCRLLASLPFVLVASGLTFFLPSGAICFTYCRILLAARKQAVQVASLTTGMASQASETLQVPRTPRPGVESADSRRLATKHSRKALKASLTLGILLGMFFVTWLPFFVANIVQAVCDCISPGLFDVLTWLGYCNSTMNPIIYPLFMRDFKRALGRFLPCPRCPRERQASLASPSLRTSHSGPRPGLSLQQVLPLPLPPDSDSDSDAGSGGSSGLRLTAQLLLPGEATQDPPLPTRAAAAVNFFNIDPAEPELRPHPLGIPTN

SMILES | inhibition at 1 µM [1] | inhibition at 1 µM [2] | inhibition at 1 µM (dopaminergic D3 receptor) | inhibition at 1 µM [3] | α1 [%] (adrenergic α1 receptor) | inhibition at 1 µM [4] | inhibition at 1 µM (dopaminergic D2 receptor) | inhibition at 1 µM [5]
O=S(=O)(NCCCN1CCC(c2noc3cc(F)ccc23)CC1)c1ccc(OC(F)(F)F)cc1 [Compound 336, N-[3-[4-(6-Fluoro-1,2-benzoxazol-3-yl)piperidin-1-yl]propyl]-4-(trifluoromethoxy)-benzenesulphonamide] | 92% | 92% | 96% | 100% | 107% | 61% | 97% | 41%
N#Cc1ccc(S(=O)(=O)NCCCN2CCC(c3noc4cc(F)ccc34)CC2)cc1 [Compound 337, 4-Cyano-N-[3-[4-(6-fluoro-1,2-benzoxazol-3-yl)piperidin-1-yl]propyl]benzenesulphonamide] | 76% | 87% | 79% | 102% | 93% | 41% | 59% | 35%
O=S(=O)(NCCCN1CCC(c2noc3cc(F)ccc23)CC1)c1cccs1 [Compound 339, N-[3-[4-(6-Fluoro-1,2-benzoxazol-3-yl)piperidin-1-yl]propyl]thiophene-2-sulphonamide] | 89% | 89% | 100% | 82% | 108% | 76% | 96% | 3%
O=S(=O)(NCCCN1CCC(c2noc3cc(F)ccc23)CC1)c1ccsc1 [Compound 340, N-[3-[4-(6-Fluoro-1,2-benzoxazol-3-yl)piperidin-1-yl]propyl]thiophene-3-sulphonamide] | 72% | 90% | 101% | 104% | 110% | 45% | 101% | 9%
Cc1cc(S(=O)(=O)NCCCN2CCC(c3noc4cc(F)ccc34)CC2)c(C)s1 [Compound 342, N-[3-[4-(6-Fluoro-1,2-benzoxazol-3-yl)piperidin-1-yl]propyl]-2,5-dimethyl-thiophene-3-sulphonamide] | 100% | 96% | 99% | 106% | 103% | 74% | 106% | 26%
Cn1ccc2c(S(=O)(=O)NCCCN3CCC(c4noc5cc(F)ccc45)CC3)cccc21 [Compound 343, N-[3-[4-(6-Fluoro-1,2-benzoxazol-3-yl)piperidin-1-yl]propyl]-1-methyl-indole-4-sulphonamide] | 77% | 92% | 96% | 105% | 86% | 32% | 101% | 4%
Cn1ccc2cc(S(=O)(=O)NCCCN3CCC(c4noc5cc(F)ccc45)CC3)ccc21 [Compound 344, N-[3-[4-(6-Fluoro-1,2-benzoxazol-3-yl)piperidin-1-yl]propyl]-1-methyl-indole-5-sulphonamide] | 91% | 95% | 101% | 105% | 106% | 42% | 107% | 31%
O=S(=O)(NCCCN1CCC(c2noc3cc(F)ccc23)CC1)c1cc2ccccc2s1 [Compound 345, N-[3-[4-(6-Fluoro-1,2-benzoxazol-3-yl)piperidin-1-yl]propyl]benzothiophene-2-sulphonamide] | 91% | 91% | 100% | 93% | 102% | 45% | 109% | -10%
